Values quoted from earlier work as cited in patent publication US20100323985A1, “PHARMACEUTICAL OR COSMETIC PREPARATIONS FOR TOPICAL AND/OR PARENTERAL APPLICATION, PREPARATION METHODS THEREOF AND USE OF SAME” (priority 2007, published 2010).

Experiments:
[1] = humans
[2] = in vivo

Substance: hyaluronic acid
- excretion in the urine [1]: less than 1 % of total clearance
- immunogenicity [2]: no immunogenicity
- tolerance [2]: very good
